Where two headings read alike, the source gives them in different places.
Tested on: Aβ1-42 production
Assay: Cellular assay for inhibition of Aβ1-42 production (H4 APP751 SWE clone 8.20)
Type: cell-based
Settings: 19 h, H4 APP751 SWE clone 8.20 cells, 19 h incubation
Description: Cellular assays for inhibition of Aβ1-40 and Aβ1-42 production
H4 cells stably transfected with APP751 containing the Swedish mutation (H4 APP751 SWE clone 8.20, developed at BMS) were maintained in log phase through twice weekly passage at a 1:20 split. For IC50 determinations, 30 μl cells (1.5×10^4 cells/well) in DMEM media containing 0.0125% BSA (Sigma A8412) were plated directly into 384-well compound plates (Costar 3709) containing 0.1 μl serially diluted compound in DMSO. Following incubation for 19 h in 5% CO2 at 37° C., plates were briefly centrifuged (1000 rpm, 5 min). A 10 μl aliquot from each well was transferred to a second assay plate (Costar 3709) for Aβ40 measurements. Antibody cocktails were freshly prepared by dilution into 40 mM Tris-HCl (pH 7.4) with 0.2% BSA and added to assay plates. For Aβ42 measurements, antibodies specific for the Aβ42 neoepitope (565, developed at BMS; conjugated to the Wallac reagent (Perkin Elmer)) and the N-terminal sequence of Aβ peptide (26D6, developed at SIBIA; conjugated to APC (Perkin Elmer)) were mixed and 20 μl of the mixture was added to each well of the incubated cell plate yielding a final concentration of 0.8 ng/well 565 and 75 ng/well 26D6. For the Aβ40 measurements, antibodies specific for the Aβ40 neoepitope (TSD, developed at BMS; conjugated to the Wallac reagent (Perkin Elmer)) and 26D6 as described above were mixed and 20 μl of the mixture was added to the 10 μl aliquots which had been removed previously from the cell plate yielding a final concentration of 1.6 ng/well TSD and 17.5 ng/well 26D6. Assay plates containing antibodies were sealed with aluminum foil and incubated overnight at 4° C. Signal was determined using a Viewlux counter (Perkin Elmer) and IC50 values determined using curve fitting in CurveMaster (Excel Fit based).

[1] = read-out: Activity Rating (based on Aβ42 cellular IC50 values)
[2] = read-out: Activity Rating (Aβ42 cellular IC50, given as a number)

| IC50 [1] [nM] | IC50 [2] [nM] | Structure (SMILES) |
| --- | --- | --- |
| < 10 | – | COc1cc(Nc2nc3n(n2)C[C@H](O)CC[C@@H]3c2ccc(F)cc2)ccc1-n1cnc(Cl)c1 (relative stereo) [Example 65, rel-(6R,9R)-2-(4-(4-chloro-1H-imidazol-1-yl)-3-methoxyphenylamino)-9-(4-fluorophenyl)-6,7,8,9-tetrahydro-5H-[1,2,4]triazolo[1,5-a]azepin-6-ol 2,2,2-trifluoroacetate] |
| < 10 | – | COc1cc(Nc2nc3n(n2)CC[C@](C)(O)C[C@@H]3c2ccc(F)cc2)ccc1-n1cnc(Cl)c1 (relative stereo) [Example 147, rel-(7R,9R)-2-(4-(4-chloro-1H-imidazol-1-yl)-3-methoxyphenylamino)-9-(4-fluorophenyl)-7-methyl-6,7,8,9-tetrahydro-5H-[1,2,4]triazolo[1,5-a]azepin-7-ol 2,2,2-trifluoroacetate] |
| < 10 | – | COc1cc(Nc2nc3n(n2)CC[C@@](C)(O)C[C@@H]3c2ccc(OC(F)(F)F)cc2)ccc1-n1cnc(Cl)c1 (relative stereo) [Example 153, rel-(7S,9R)-2-(4-(4-chloro-1H-imidazol-1-yl)-3-methoxyphenylamino)-7-methyl-9-(4-(trifluoromethoxy)phenyl)-6,7,8,9-tetrahydro-5H-[1,2,4]triazolo[1,5-a]azepin-7-ol 2,2,2-trifluoroacetate] |
| 10 to 100 | – | Cc1ncn(-c2ccc(Nc3nc4n(n3)CC[C@@](C)(O)C[C@@H]4c3ccc(F)cc3)cc2F)n1 (relative stereo) [Example 155, rel-(7S,9R)-2-(3-fluoro-4-(3-methyl-1H-1,2,4-triazol-1-yl)phenylamino)-9-(4-fluorophenyl)-7-methyl-6,7,8,9-tetrahydro-5H-[1,2,4]triazolo[1,5-a]azepin-7-ol 2,2,2-trifluoroacetate] |
| 10 to 100 | – | Cc1ncnn1-c1ccc(Nc2nc3n(n2)CC[C@@H](O)C[C@@H]3c2ccc(F)cc2)cc1F (relative stereo) [Example 157, rel-(7S,9R)-2-(3-fluoro-4-(5-methyl-1H-1,2,4-triazol-1-yl)phenylamino)-9-(4-fluorophenyl)-6,7,8,9-tetrahydro-5H-[1,2,4]triazolo[1,5-a]azepin-7-ol 2,2,2-trifluoroacetate] |
| 10 to 100 | – | COc1cc(Nc2nc3n(n2)CC=CC[C@H]3c2ccc(F)cc2)ccc1-n1cnc(C)n1 (single isomer, unassigned) [Example 5] |
| < 10 | – | COc1cc(Nc2nc3n(n2)CCCC[C@H]3c2ccc(F)cc2)ccc1-n1cnc(Cl)c1 (single isomer, unassigned) [Example 17] |
| 10 to 100 | – | Cc1ncn(-c2ccc(Nc3nc4n(n3)CCCC[C@H]4c3ccc(F)cc3)cc2F)n1 (single isomer, unassigned) [Example 26] |
| 10 to 100 | – | Cc1ncn(-c2ccc(Nc3nc4n(n3)CCCC[C@@H]4c3ccc(F)cc3)cc2F)n1 (single isomer, unassigned) [Example 27] |

Further lines, the molecule ahead of its results:

| Structure (SMILES) | IC50 [1] [nM] | IC50 [2] [nM] |
| --- | --- | --- |
| COc1cc(Nc2nc3n(n2)C[C@H](O)CC[C@H]3c2ccc(F)cc2)ccc1-n1cnc(Cl)c1 (relative stereo) [Example 62, rel-(6R,9S)-2-(4-(4-chloro-1H-imidazol-1-yl)-3-methoxyphenylamino)-9-(4-fluorophenyl)-6,7,8,9-tetrahydro-5H-[1,2,4]triazolo[1,5-a]azepin-6-ol 2,2,2-trifluoroacetate] | < 10 | – |
| COc1cc(Nc2nc3n(n2)C[C@H](O)[C@H](O)CC3c2ccc(F)cc2)ccc1-n1cnc(Cl)c1 (relative stereo) [Example 63, rel-(6S,7R,9R)-2-(4-(4-chloro-1H-imidazol-1-yl)-3-methoxyphenylamino)-9-(4-fluorophenyl)-6,7,8,9-tetrahydro-5H-[1,2,4]triazolo azepine-6,7-diol 2,2,2-trifluoroacetate] | – | 140 |
| COc1cc(Nc2nc3n(n2)C[C@H](O)[C@H](O)C[C@H]3c2ccc(F)cc2)ccc1-n1cnc(Cl)c1 (relative stereo) [Example 64, rel-(6S,7R,9S)-2-(4-(4-chloro-1H-imidazol-1-yl)-3-methoxyphenylamino)-9-(4-fluorophenyl)-6,7,8,9-tetrahydro-5H-[1,2,4]triazolo[1,5-a]azepine-6,7-diol 2,2,2-trifluoroacetate] | 10 to 100 | – |
| COc1cc(Nc2nc3n(n2)CC[C@@H](O)C[C@@H]3c2ccc(F)cc2)ccc1-n1cnc(Cl)c1 (relative stereo) [Example 66, rel-(7S,9R)-2-(4-(4-chloro-1H-imidazol-1-yl)-3-methoxyphenylamino)-9-(4-fluorophenyl)-6,7,8,9-tetrahydro-5H-[1,2,4]triazolo[1,5-a]azepin-7-ol 2,2,2-trifluoroacetate] | < 10 | – |
| COc1cc(Nc2nc3n(n2)C[C@H](F)[C@H](F)C[C@H]3c2ccc(F)cc2)ccc1-n1cnc(Cl)c1 (relative stereo) [Example 91, rel-(6S,7R,9S)—N-(4-(4-chloro-1H-imidazol-1-yl)-3-methoxyphenyl)-6,7-difluoro-9-(4-fluorophenyl)-6,7,8,9-tetrahydro-5H-[1,2,4]triazolo[1,5-a]azepin-2-amine 2,2,2-trifluoroacetate] | < 10 | – |
| Cc1ncnn1-c1ccc(Nc2nc3n(n2)CC[C@](C)(O)C[C@@H]3c2ccc(F)cc2)cc1F (relative stereo) [Example 150, rel-(7R,9R)-2-(3-fluoro-4-(5-methyl-1H-1,2,4-triazol-1-yl)phenylamino)-9-(4-fluorophenyl)-7-methyl-6,7,8,9-tetrahydro-5H-[1,2,4]triazolo[1,5-a]azepin-7-ol 2,2,2-trifluoroacetate] | 10 to 100 | – |
| Cc1ncnn1-c1ccc(Nc2nc3n(n2)CC[C@@](C)(O)C[C@@H]3c2ccc(F)cc2)cc1F (relative stereo) [Example 151, rel-(7S,9R)-2-(3-fluoro-4-(5-methyl-1H-1,2,4-triazol-1-yl)phenylamino)-9-(4-fluorophenyl)-7-methyl-6,7,8,9-tetrahydro-5H-[1,2,4]triazolo[1,5-a]azepin-7-ol 2,2,2-trifluoroacetate] | 10 to 100 | – |
| COc1cc(Nc2nc3n(n2)CC[C@](C)(O)C[C@@H]3c2ccc(OC(F)(F)F)cc2)ccc1-n1cnc(Cl)c1 (relative stereo) [Example 152, rel-(7R,9R)-2-(4-(4-chloro-1H-imidazol-1-yl)-3-methoxyphenylamino)-7-methyl-9-(4-(trifluoromethoxy)phenyl)-6,7,8,9-tetrahydro-5H-[1,2,4]triazolo[1,5-a]azepin-7-ol 2,2,2-trifluoroacetate] | < 10 | – |
| Cc1ncn(-c2ccc(Nc3nc4n(n3)CC[C@](C)(O)C[C@@H]4c3ccc(F)cc3)cc2F)n1 (relative stereo) [Example 154, rel-(7R,9R)-2-(3-fluoro-4-(3-methyl-1H-1,2,4-triazol-1-yl)phenylamino)-9-(4-fluorophenyl)-7-methyl-6,7,8,9-tetrahydro-5H-[1,2,4]triazolo[1,5-a]azepin-7-ol 2,2,2-trifluoroacetate] | 10 to 100 | – |
| Cc1ncnn1-c1ccc(Nc2nc3n(n2)CC[C@H](O)C[C@@H]3c2ccc(F)cc2)cc1F (relative stereo) [Example 156, rel-(7R,9R)-2-(3-fluoro-4-(5-methyl-1H-1,2,4-triazol-1-yl)phenylamino)-9-(4-fluorophenyl)-6,7,8,9-tetrahydro-5H-[1,2,4]triazolo[1,5-a]azepin-7-ol 2,2,2-trifluoroacetate] | – | 122 |
| COc1cc(Nc2nc3n(n2)CC=CC[C@H]3c2ccc(F)cc2)ccc1-n1cnc(Cl)c1 (single isomer, unassigned) [Example 2] | – | 9 |
| COc1cc(Nc2nc3n(n2)CC=CC[C@@H]3c2ccc(F)cc2)ccc1-n1cnc(Cl)c1 (single isomer, unassigned) [Example 3] | < 10 | – |
| COc1cc(Nc2nc3n(n2)CC=CC[C@@H]3c2ccc(F)cc2)ccc1-n1cnc(C)n1 (single isomer, unassigned) [Example 6] | 10 to 100 | – |
| Cc1ncnn1-c1ccc(Nc2nc3n(n2)CCC[C@H]3c2ccc(F)cc2)cc1F (single isomer, unassigned) [Example 14] | – | 53 |
| Cc1ncnn1-c1ccc(Nc2nc3n(n2)CCC[C@@H]3c2ccc(F)cc2)cc1F (single isomer, unassigned) [Example 15] | 100 to 1000 | – |
| COc1cc(Nc2nc3n(n2)CCCC[C@@H]3c2ccc(F)cc2)ccc1-n1cnc(Cl)c1 (single isomer, unassigned) [Example 18] | 10 to 100 | – |
| COc1cc(Nc2nc3n(n2)CCCC[C@H]3c2ccc(Cl)cc2Cl)ccc1-n1cnc(Cl)c1 (single isomer, unassigned) [Example 20] | < 10 | – |
| COc1cc(Nc2nc3n(n2)CCCC[C@@H]3c2ccc(Cl)cc2Cl)ccc1-n1cnc(Cl)c1 (single isomer, unassigned) [Example 21] | < 10 | – |
| COc1cc(Nc2nc3n(n2)CCCC[C@@H]3c2ccc(F)c(F)c2)ccc1-n1cnc(Cl)c1 (single isomer, unassigned) [Example 24] | < 10 | – |
